According to ChEMBL document CHEMBL1143011, “NMR screening applied to the fragment-based generation of inhibitors of creatine kinase exploiting a new interaction proximate to the ATP binding site” (J Med Chem, 2007):

Tests used:
[1] = biological target: Creatine kinase M-type (Oryctolagus cuniculus) (UniProt P00563); test: Inhibition of rabbit muscle creatine kinase at 27.5 uM in presence of 400 uM MgATP
Creatine kinase M-type [2] = biological target: T1, Creatine kinase M-type (Oryctolagus cuniculus, UniProt P00563); test: Inhibition of rabbit muscle creatine kinase by pH-stat assay
T1 sequence (P00563 whole entry): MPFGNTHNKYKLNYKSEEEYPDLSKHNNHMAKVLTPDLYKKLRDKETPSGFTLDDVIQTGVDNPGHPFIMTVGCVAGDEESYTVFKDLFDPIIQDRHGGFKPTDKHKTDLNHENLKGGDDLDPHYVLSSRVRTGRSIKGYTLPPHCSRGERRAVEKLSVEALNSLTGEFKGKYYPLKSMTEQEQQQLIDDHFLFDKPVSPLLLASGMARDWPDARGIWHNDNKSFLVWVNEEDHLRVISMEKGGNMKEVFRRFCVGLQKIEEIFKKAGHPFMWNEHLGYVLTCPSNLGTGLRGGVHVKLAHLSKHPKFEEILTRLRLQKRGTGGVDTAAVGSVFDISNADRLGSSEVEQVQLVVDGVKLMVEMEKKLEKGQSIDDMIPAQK

Creatine kinase M-type [3] = biological target: T1, Creatine kinase M-type; test: Inhibition of rabbit muscle creatine kinase-MgATP complex by pH-stat assay

Chain of Creatine kinase M-type (Oryctolagus cuniculus) (P00563 whole entry): as above

Question: Which inhibition [1] does the source give for `O=C(c1ccccc1)c1ccc(-c2ccc(-c3ccc(C(=O)O)o3)cc2)cc1` here?
Answer: Its inhibition is 63%.

Question: `O=C(NCc1ccc(-c2ccccc2)cc1)c1ccc(-c2ccc(C(=O)O)o2)cc1` was tested. Which inhibition [1] did it give?
Answer: The inhibition was 63%.

Question: How did the IC50 (Creatine kinase M-type [2]) turn out when `O=C(Nc1ccc(C(=O)c2ccccc2)cc1)c1ccc(-c2ccc(C(=O)O)o2)cc1` was run?
Answer: Its IC50 is 50 µM.

Question: And the Ki (Creatine kinase M-type [2])?
Answer: The Ki was 25 µM.

Question: What about the inhibition [1] of the same molecule?
Answer: Its inhibition is 35%.

Question: What about the Ki (Creatine kinase M-type [3]) of the same molecule?
Answer: Its Ki is 70 µM.

Question: For `O=C(NCc1ccccc1)c1ccc(-c2ccc(C(=O)O)o2)cc1`, which inhibition [1] is on record?
Answer: The inhibition was 20%.
